This note sets out measurements from patent US10125118B2, “Heteroaryl compounds and their use as therapeutic drugs” (Dong-A Socio Holdings Co., Ltd., priority 2015, dated 2018).

Molecules are shown by their SMILES. Where two headings read alike, the source gives them in different places.

Assay [1] has as its system CD8-MerTK in Ba/F3-CDM cells. As to the kind of experiment: In cell MER kinase assay, Ba/F3-CDM cell proliferation without IL-3 (Celltiter-Glo). The conditions noted are these: 48 hours compound treatment, read-out: Cell growth inhibition (GI50). Type of assay: cell-based, murine. The method, boiled down:
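Ba/F3 cells, IL-3-dependent, transfected with CD8-MerTK and grown without IL-3 in DMEM/10% FBS. IL-3-supplemented Ba/F3 cells run in parallel as a cytotoxicity control.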
(In general: Cellular ATP, detected with luciferase, serves as a proxy for viable cell number.)

In assay [2] the target is human c-MER catalytic domain (Homo sapiens (Human), UniProt Q12866). As to the kind of experiment: LanthaScreen TR-FRET kinase assay, c-MER.
[3] abbreviates: read-out: Mer TK inhibition (IC50), Biochemical IC50, TR-FRET, 10 uM ATP.

In general, GI50 refers to the concentration giving 50% growth inhibition. Usually IC50 stands for the concentration at which inhibition is half-maximal.

human c-MER catalytic domain, sequence (Q12866 587-858): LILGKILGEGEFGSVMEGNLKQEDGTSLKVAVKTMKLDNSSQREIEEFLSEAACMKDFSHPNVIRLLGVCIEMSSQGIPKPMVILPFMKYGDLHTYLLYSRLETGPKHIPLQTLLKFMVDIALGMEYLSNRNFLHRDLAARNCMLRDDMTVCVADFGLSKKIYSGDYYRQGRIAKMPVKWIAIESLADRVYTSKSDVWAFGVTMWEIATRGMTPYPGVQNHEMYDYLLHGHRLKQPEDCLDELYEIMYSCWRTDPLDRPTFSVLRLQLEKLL

Take `CN1CCN(Cc2ccc(-c3ccc(CO[C@H]4CNC[C@@H]4NC(=O)c4cc(-c5cnn(C)c5)cnc4N)cc3)cc2)CC1` [Example 434, 2-amino-5-(1-methyl-1H-pyrazol-4-yl)-N-((3S,4S)-4-((4′-((4-methylpiperazin-1-yl)methyl)-[1,1′-biphenyl]-4-yl)methoxy)pyrrolidin-3-yl)-nicotinamide]: the GI50 in assay [1] lay in the range of 500 to 1000 nM. The IC50 in assay [2] (setting [3]) was < 10 nM.
Taken in the same sequence, the figures for `CC(c1ccc(-c2ccc(CO[C@H]3CCC[C@@H]3NC(=O)c3cc(-c4cnn(C)c4)cnc3N)cc2)cc1)N1C[C@@H](C)N(CCO)[C@@H](C)C1` (stereo partly drawn) [Example 211] were < 100 nM and < 10 nM.
Turning to `Cn1cc(-c2cnc(N)c(C(=O)N[C@H]3CNC[C@@H]3OCc3ccc(-c4ccc(CN5CCN(CCO)CC5)cc4)cc3)c2)cn1` [Example 446, 2-amino-N-((3S,4S)-4-((4′-((4-(2-hydroxyethyl)piperazin-1-yl)-methyl)-[1,1′-biphenyl]-4-yl)methoxy)pyrrolidin-3-yl)-5-(1-methyl-1H-pyrazol-4-yl)-nicotinamide], in assay [1], the GI50 was > 1000 nM. In assay [2] (setting [3]), the IC50 is < 10 nM.
For `CCc1cc(CO[C@H]2CNC[C@@H]2NC(=O)c2cc(-c3ccc(C=O)cc3)cnc2N)ccc1C` [Example 399, 2-amino-N-((3S,4S)-4-((3-ethyl-4-methylbenzyl)oxy)pyrrolidin-3-yl)-5-(4-formylphenyl)nicotinamide], the GI50 in assay [1] fell in the range of 500 to 1000 nM. Further, the IC50 in assay [2] was < 10 nM.
Consider `Cn1cc(-c2cnc(N)c(C(=O)N[C@H]3CCC[C@@H]3OCc3ccc(-c4ccc(N5CCNCC5)nc4)cc3)c2)cn1` [Example 147, 2-amino-5-(1-methyl-1H-pyrazol-4-yl)-N-((1S,2S)-2-((4-(6-(piperazin-1-yl)pyridin-3-yl)benzyl)oxy)cyclopentyl)nicotinamide], for which the GI50 in assay [1] fell in the range of 100 to 500 nM. For the same compound, the IC50 in assay [2] (setting [3]) is < 10 nM.
Regarding `CN1CCN(Cc2c(F)cc(-c3ccc(CO[C@H]4CCC[C@@H]4NC(=O)c4cc(-c5cnn(C)c5)cnc4N)cc3)cc2F)CC1` [Example 196, 2-amino-N-((1S,2S)-2-((3′,5′-difluoro-4′-((4-methylpiperazin-1-yl)methyl)-[1,1′-biphenyl]-4-yl)methoxy)cyclopentyl)-5-(1-methyl-1H-pyrazol-4-yl)nicotinamide], the GI50 in assay [1] was 100 to 500 nM. Besides, the half-inhibitory concentration (IC50) in assay [2] (setting [3]) was < 10 nM.
The corresponding values for `COc1ccc(-c2cnc(N)c(C(=O)N[C@H]3CCC[C@@H]3OCc3ccc(-c4ccc(CN5CCN(C)CC5)cc4)cc3)c2)cc1OC` [Example 383, 2-amino-5-(3,4-dimethoxyphenyl)-N-((1S,2S)-2-((4′-((4-methylpiperazin-1-yl)methyl)-[1,1′-biphenyl]-4-yl)methoxy)cyclopentyl)nicotinamide] are < 100 nM and < 10 nM.
As to `Cn1cc(-c2cnc(N)c(C(=O)N[C@H]3CCC[C@@H]3OCc3ccc(-c4ccc(CN5CCN(CC(C)(C)O)CC5)cc4)cc3)c2)cn1` [Example 182, 2-amino-N-((1S,2S)-2-((4′-((4-(2-hydroxy-2-methylpropyl)-piperazin-1-yl)methyl)-[1,1′-biphenyl]-4-yl)methoxy)cyclopentyl)-5-(1-methyl-1H-pyrazol-4-yl)nicotinamide], in assay [1], the GI50 was < 100 nM. Moreover, the IC50 in assay [2] (setting [3]) was < 10 nM.
As to `Cn1cc(-c2cnc(N)c(C(=O)N[C@H]3CCC[C@@H]3OCc3ccc(-c4ccc(CN5CCC(N6CCCC6)CC5)cc4)cc3)c2)cn1` [Example 179, 2-amino-5-(1-methyl-1H-pyrazol-4-yl)-N-((1S,2S)-2-((4′-((4-(pyrrolidin-1-yl)piperidin-1-yl)methyl)-[1,1′-biphenyl]-4-yl)methoxy)cyclopentyl)-nicotinamide], the GI50 in assay [1] lay within 100 to 500 nM. In addition, in assay [2] (setting [3]), the IC50 was < 10 nM.
On to `CN1C[C@H](NC(=O)c2cc(-c3cnn(C)c3)cnc2N)[C@@H](OCc2ccc(-c3ccc(CN4CCN(CCO)CC4)cc3)cc2)C1` [Example 447, 2-amino-N-((3S,4S)-4-((4′-((4-(2-hydroxyethyl)piperazin-1-yl)-methyl)-[1,1′-biphenyl]-4-yl)methoxy)-1-methylpyrrolidin-3-yl)-5-(1-methyl-1H-pyrazol-4-yl)nicotinamide], for which, in assay [1], the concentration for 50% growth inhibition (GI50) is < 100 nM. For the same compound, the IC50 in assay [2] (setting [3]) was < 10 nM.
Taken in the same sequence, the figures for `Cn1cc(-c2cnc(N)c(C(=O)N[C@H]3CCC[C@@H]3OCc3ccc(-c4ccc(CN5CCN(CCO)CC5)c(C(F)(F)F)c4)cc3)c2)cn1` [Example 205, 2-amino-N-((1S,2S)-2-((4′-((4-(2-hydroxyethyl)piperazin-1-yl)methyl)-3′-(trifluoromethyl)-[1,1′-biphenyl]-4-yl)methoxy)cyclopentyl)-5-(1-methyl-1H-pyrazol-4-yl)nicotinamide] were < 100 nM and < 10 nM.
As to `CC(c1ccc(-c2ccc(CO[C@H]3CN(C)C[C@@H]3NC(=O)c3cc(-c4cnn(C)c4)cnc3N)cc2)cc1)N1CCN(CCO)CC1` (stereo partly drawn) [Example 443, 2-amino-N-((3S,4S)-4-((4′-(1-(4-(2-hydroxyethyl)piperazin-1-yl)ethyl)-[1,1′-biphenyl]-4-yl)methoxy)-1-methylpyrrolidin-3-yl)-5-(1-methyl-1H-pyrazol-4-yl)nicotinamide], the GI50 in assay [1] was < 100 nM. Also, the IC50 in assay [2] (setting [3]) is < 10 nM.
